Like-named read-outs stand apart in the source and are kept apart here.
Legend:
[1] = Stability of the four compounds in plasma samples (QC samples); conditions: n = 5
Protocol: In a 1.5 mL EP tube, 100 μL of plasma sample was mixed with 10 µL 1% formic acid–water, 10 μL IS (0.2011 μg/mL), and 400 μL acetonitrile. The mixture was then vortexed for 5 min, followed by sonication for 10 min at 40 kHz and centrifugation at 14,000 rpm for 10 min. The supernatant obtained was transferred to another tube and evaporated to dryness under a nitrogen vacuum at 37°C. The residue obtained was reconstituted with 150 μL of the initial mobile phase, and the centrifugation process was repeated. The supernatant thus obtained was then used for further analysis.
Similarly, QC samples of three concentrations (low, medium, and high) were prepared.
The specificity of the method was evaluated by comparing the retention times of analytes and IS in the blank matrix, blank matrix spiked with the four analytes and IS, and the samples after oral administration of CA extract. Calibration curves were constructed by comparing the ratio of peak areas of the four analytes to that of IS versus the concentration of the four analytes. Calibration curves were fitted via linear weighted (1/X ^ 2 ) least–squares regression. The intra–and inter–day precision and accuracy were estimated by analyzing QC samples at different concentrations on the same day and three consecutive validation days, respectively. The extraction recovery was evaluated by determining the peak area of analytes in QC samples compared with that in extracted matrix samples. The relative standard deviation of the extraction recovery of analytes at each level was retained at ≤20.0%. The following parameters of stability were assessed: short–term stability (24 h at room temperature), processed sample stability (24 h at 4°C), freeze–thaw stability (3 cycles), and auto–sampler stability (6 h at room temperature). QC samples of different concentrations were used for stability analysis.

[2] = Tissue distribution study after oral administration of CA extract in normal and FD rats
Protocol: UPLC–MS/MS analysis was conducted using the ACQUITY UPLC system (Waters Corp., Milford, MA, United States) equipped with a Xevo–TQ mass spectrometer (Waters Corp., Milford, MA, United States) with an electrospray ionization (ESI) interface and triple quadrupole mass analyzer.
The ACQUITY UPLC® BEH C18 column (2.1 mm × 50 mm, 1.7 μm, Waters, United States) was used for separation and was maintained at 40°C. The mobile phase consisted of 0.1% formic acid in water (A) and 0.1% formic acid–acetonitrile (B) for PK study and 0.2% formic acid in water (A) and 0.2% formic acid–acetonitrile (B) for tissue distribution study. The mobile phase was eluted as a gradient, as follows: 0–0.5 min, 10% B; 0.5–3.0 min, 15% B; 3.0–3.2 min, 25% B; 3.2–4.0 min, 30% B; 4.0–4.5 min, 32% B; 4.5–6.0 min, 90% B; and 6.0 min, 10% B. The flow rate was set at 0.35 mL/min and the injection volume was 2 μL for the PK study and 1 μL for the tissue distribution study.
The four active components of CA were quantified using multiple reaction monitoring under negative ion mode. The following m/z transitions were chosen for quantification: baishouwu benzophenone 301.00→283.00, deacylmetaplexigenin 379.15→361.20, qingyangshengenin 499.20→137.00, syringic acid 197.20→181.95, and puerarin (internal standard, IS) 415.10→267.05. The collision energy was 15, 15, 35, 15, and 35 V, respectively ([Sun et al., 2022]). ESI mode was operated under the following conditions: capillary voltage, 1 kV; desolvation gas (N2), 1000 L/h; collision gas (Ar2), 150 L/h; desolvation temperature, 400°C; and source temperature, 120°C.
(§1) Additionally, stomach and small intestinal tissues were diluted three times to obtain a tissue homogenate. Then, 300 μL of this tissue homogenate was mixed with 30 μL 1% formic acid-water, 20 μL IS, and 1.2 mL acetonitrile. The mixture was then vortexed for 5 min, sonicated for 10 min, and then stored at −20°C for 30 min. Subsequently, the mixture was centrifuged at 14,000 rpm for 10 min. The supernatant obtained was then transferred to another tube and evaporated to dryness at 37°C under nitrogen. The dried residue was reconstituted with 200 μL of the 50% methanol–water, and the centrifugation process was repeated. The obtained supernatant was then used for further analysis.
SD rats were randomly divided into normal and FD groups (n = 30 each) and orally administered 10 mL/kg of CA extract solution. The rats were sacrificed at 10, 30 min, 1, 2, and 4 h after administration (6 rats per time point). Subsequently, their heart, liver, spleen, lung, kidney, brain, small intestine, and stomach were removed. The tissue samples were then washed in saline solution and wiped with filter paper. Subsequently, all tissues were stored at −80°C until analysis.

[3] = PK study: plasma pharmacokinetics after oral administration of CA extract in normal and FD rats (UPLC-MS/MS); type: in vivo; conditions: Sprague-Dawley, rat, oral CA extract (0.10 g/mL solution, 10 mL/kg); for AUC(0-inf) / AUC(0-t) / CL/F / Cmax / half-life: n = 6; for Tmax: n = 6, read-out: Tmax; for Vd/F: n = 6, read-out: Vz/F
Protocol: For PK experiments, an appropriate amount of the CA extract was weighed to prepare a 0.10 g/mL solution using physiological saline. Briefly, 12 SD rats were randomly assigned to normal and FD groups and were orally administered the prepared CA sample (10 mL/kg body weight). For assessment, 0.3 mL of blood was collected into heparinized tubes via the caudal vein before dosing and at 2, 5, 10, 15, 20, 30, and 45 min, and 1, 2, 4, 8, 12, 24, and 48 h after administration. Blood samples were then immediately centrifuged at 4,500 rpm for 15 min, and the obtained plasma samples were stored at −20°C until determination.
The PK parameters were analyzed using the non–compartment analysis using the WinNonLin 8.2 software (Phoenix, United States). All the data were expressed as mean ± standard deviation (SD). The normal and FD groups were compared using independent samples t–test in SPSS 22.0. Results with p values < 0.05 were considered statistically significant.

[4] = Stability of the four compounds in tissue homogenate samples (QC samples); conditions: mean ± s, n = 5
Protocol: as §1
The appropriate amount of the reference substance was accurately weighed and dissolved in an appropriate amount of methanol to obtain stock solutions. The concentrations of the resulting stock solution were 0.9996 mg/mL for baishouwu benzophenone, 0.9518 mg/mL for deacylmetaplexigenin, 1.3660 mg/mL for qingyangshengenin, and 0.9898 mg/mL for syringic acid. Accurate volumes of each stock solution were mixed to obtain working solution, which was then serially diluted with methanol to provide standard working solutions. Similarly, QC samples of three concentrations (low, medium, and high) were prepared. All solutions were stored at −20°C for later use.
The following parameters of stability were assessed: short–term stability (24 h at room temperature), processed sample stability (24 h at 4°C), freeze–thaw stability (3 cycles), and auto–sampler stability (6 h at room temperature). QC samples of different concentrations were used for stability analysis.

[5] = high QC (nominal 1666.00 / 3172.53 / 569.17 / 206.21 ng·mL^-1)
[6] = low QC (nominal 52.06 / 49.57 / 8.89 / 1.61 ng·mL^-1)
[7] = medium QC (nominal 208.25 / 396.57 / 71.13 / 25.78 ng·mL^-1)
[8] = Brain homogenate, highest QC (ng·mL^-1): Baishouwu benzophenone 131.10, Syringic acid 320.04, Qingyangshengenin 62.12, Deacylmetaplexigenin 677.19
[9] = Brain homogenate, lowest QC (ng·mL^-1): Baishouwu benzophenone 3.34, Syringic acid 8.18, Qingyangshengenin 1.58, Deacylmetaplexigenin 17.26
[10] = Brain homogenate, middle QC (ng·mL^-1): Baishouwu benzophenone 20.88, Syringic acid 51.14, Qingyangshengenin 9.90, Deacylmetaplexigenin 107.87
[11] = Heart homogenate, highest QC (ng·mL^-1): Baishouwu benzophenone 111.56, Syringic acid 340.93, Qingyangshengenin 350.76, Deacylmetaplexigenin 1522.88
[12] = Heart homogenate, lowest QC (ng·mL^-1): Baishouwu benzophenone 2.66, Syringic acid 8.11, Qingyangshengenin 8.35, Deacylmetaplexigenin 36.24
[13] = Heart homogenate, middle QC (ng·mL^-1): Baishouwu benzophenone 18.96, Syringic acid 57.96, Qingyangshengenin 59.63, Deacylmetaplexigenin 258.89
[14] = Kidney homogenate, highest QC (ng·mL^-1): Baishouwu benzophenone 768.40, Syringic acid 1230.44, Qingyangshengenin 844.98, Deacylmetaplexigenin 2249.71
[15] = Kidney homogenate, lowest QC (ng·mL^-1): Baishouwu benzophenone 9.84, Syringic acid 15.75, Qingyangshengenin 10.82, Deacylmetaplexigenin 28.80
[16] = Kidney homogenate, middle QC (ng·mL^-1): Baishouwu benzophenone 81.96, Syringic acid 131.25, Qingyangshengenin 90.13, Deacylmetaplexigenin 239.97
[17] = Liver homogenate, highest QC (ng·mL^-1): Baishouwu benzophenone 313.75, Syringic acid 268.07, Qingyangshengenin 4484.13, Deacylmetaplexigenin 3093.35
[18] = Liver homogenate, lowest QC (ng·mL^-1): Baishouwu benzophenone 1.77, Syringic acid 22.34, Qingyangshengenin 25.26, Deacylmetaplexigenin 16.38
[19] = Lung homogenate, highest QC (ng·mL^-1): Baishouwu benzophenone 630.29, Syringic acid 662.80, Qingyangshengenin 385.86, Deacylmetaplexigenin 1513.71
[20] = Lung homogenate, lowest QC (ng·mL^-1): Baishouwu benzophenone 17.66, Syringic acid 18.57, Qingyangshengenin 10.81, Deacylmetaplexigenin 42.42
[21] = Lung homogenate, middle QC (ng·mL^-1): Baishouwu benzophenone 105.98, Syringic acid 111.44, Qingyangshengenin 64.88, Deacylmetaplexigenin 254.52
[22] = Small intestine homogenate, highest QC (ng·mL^-1): Baishouwu benzophenone 39.22, Syringic acid 773.28, Qingyangshengenin 1726.39, Deacylmetaplexigenin 1206.41
[23] = Small intestine homogenate, lowest QC (ng·mL^-1): Baishouwu benzophenone 0.46, Syringic acid 9.31, Qingyangshengenin 20.77, Deacylmetaplexigenin 14.52
[24] = Small intestine homogenate, middle QC (ng·mL^-1): Baishouwu benzophenone 4.97, Syringic acid 97.95, Qingyangshengenin 218.68, Deacylmetaplexigenin 152.81
[25] = Spleen homogenate, highest QC (ng·mL^-1): Baishouwu benzophenone 658.88, Syringic acid 752.66, Qingyangshengenin 418.52, Deacylmetaplexigenin 1979.74
[26] = Spleen homogenate, lowest QC (ng·mL^-1): Baishouwu benzophenone 10.98, Syringic acid 12.54, Qingyangshengenin 6.98, Deacylmetaplexigenin 33.00
[27] = Spleen homogenate, middle QC (ng·mL^-1): Baishouwu benzophenone 87.85, Syringic acid 100.35, Qingyangshengenin 55.80, Deacylmetaplexigenin 263.97
[28] = Stomach homogenate, highest QC (ng·mL^-1): Baishouwu benzophenone 47.06, Syringic acid 257.76, Qingyangshengenin 1285.45, Deacylmetaplexigenin 1665.65
[29] = Stomach homogenate, lowest QC (ng·mL^-1): Baishouwu benzophenone 0.63, Syringic acid 3.44, Qingyangshengenin 17.14, Deacylmetaplexigenin 22.21
[30] = Stomach homogenate, middle QC (ng·mL^-1): Baishouwu benzophenone 6.28, Syringic acid 34.37, Qingyangshengenin 171.39, Deacylmetaplexigenin 222.09

## CC(=O)c1ccc(O)c(C(=O)c2c(O)ccc(O)c2C)c1O [Baishouwu benzophenone]
[1]; [5]
  Measured concentration, 4°C for 24 h: 1594.23 ± 107.31 ng/mL
  Measured concentration, Room temperature for 24 h: 1664.66 ± 169.47 ng/mL
  Measured concentration, Three freeze-thaw cycles: 1684.19 ± 146.38 ng/mL
[1]; [6]
  Measured concentration, 4°C for 24 h: 55.65 ± 4.01 ng/mL
  Measured concentration, Three freeze-thaw cycles: 56.07 ± 5.75 ng/mL
[1]; low QC (nominal 52.06 / 49.57 / 8.89 / 1.61 ng·mL^-1 for baishouwu benzophenone / deacylmetaplexigenin / qingyangshengenin / syringic acid)
  Measured concentration, Room temperature for 24 h: 55.67 ± 5.93 ng/mL
[1]; [7]
  Measured concentration, 4°C for 24 h: 221.19 ± 11.60 ng/mL
  Measured concentration, Room temperature for 24 h: 222.20 ± 17.55 ng/mL
  Measured concentration, Three freeze-thaw cycles: 221.08 ± 17.98 ng/mL
[2]; FD group
  tissue with the highest concentration: lungs
[2]; distribution found in rat brain
  crossing of the blood-brain barrier: could cross the blood-brain barrier
[2]; rat tissues
  time after oral administration at which almost completely metabolized in tissues: 4 h
  time of peak in most of organ tissues: 0.17 to 0.5 h
[3]; FD group rats
  AUC(0-inf): 11100 ng·h/mL
  AUC(0-t): 9820 ± 1300 ng·h/mL
  CL/F: 7.5 mL/min/kg
  Cmax: 5220 ± 440 ng/mL
  half-life: 11 ± 1.85 h
  Tmax: 0.31 ± 0.06 h
  Vd/F: 7.08 ± 1.07 L/kg
[3]; Normal group rats
  AUC(0-inf): 13800 ng·h/mL
  AUC(0-t): 12800 ng·h/mL
  CL/F: 6 mL/min/kg
  Cmax: 6000 ± 592 ng/mL
  half-life: 9.14 ± 2.41 h
  Tmax: 0.26 ± 0.03 h
  Vd/F: 4.67 ± 0.88 L/kg
[4]; [8]
  Auto-sampler for 6 h Measured concentration: 120.63 ± 2.55 ng/mL
  Three freeze-thaw cycles Measured concentration: 123.76 ± 3.01 ng/mL
[4]; [9]
  Auto-sampler for 6 h Measured concentration: 3.08 ± 0.01 ng/mL
  Three freeze-thaw cycles Measured concentration: 3.02 ± 0.04 ng/mL
[4]; [10]
  Auto-sampler for 6 h Measured concentration: 19.76 ± 0.44 ng/mL
  Three freeze-thaw cycles Measured concentration: 20.10 ± 0.34 ng/mL
[4]; [11]
  Auto-sampler for 6 h Measured concentration: 117.44 ± 1.18 ng/mL
  Three freeze-thaw cycles Measured concentration: 118.10 ± 1.89 ng/mL
[4]; [12]
  Auto-sampler for 6 h Measured concentration: 2.59 ± 0.05 ng/mL
  Three freeze-thaw cycles Measured concentration: 2.47 ± 0.03 ng/mL
[4]; [13]
  Auto-sampler for 6 h Measured concentration: 19.82 ± 0.45 ng/mL
  Three freeze-thaw cycles Measured concentration: 19.77 ± 0.41 ng/mL
[4]; [14]
  Auto-sampler for 6 h Measured concentration: 750.99 ± 14.44 ng/mL
  Three freeze-thaw cycles Measured concentration: 748.36 ± 12.9 ng/mL
[4]; [15]
  Auto-sampler for 6 h Measured concentration: 9.74 ± 0.44 ng/mL
  Three freeze-thaw cycles Measured concentration: 9.58 ± 0.63 ng/mL
[4]; [16]
  Auto-sampler for 6 h Measured concentration: 88.88 ± 5.31 ng/mL
  Three freeze-thaw cycles Measured concentration: 87.75 ± 5.24 ng/mL
[4]; [17]
  Auto-sampler for 6 h Measured concentration: 305.22 ± 17.58 ng/mL
  Three freeze-thaw cycles Measured concentration: 303.56 ± 16.64 ng/mL
[4]; [18]
  Auto-sampler for 6 h Measured concentration: 1.80 ± 0.19 ng/mL
  Three freeze-thaw cycles Measured concentration: 1.86 ± 0.05 ng/mL
[4]; Liver homogenate, middle QC (ng·mL^-1): Baishouwu benzophenone 27.19, Syringic acid 89.35, Qingyangshengenin 386.62, Deacylmetaplexigenin 268.09
  Three freeze-thaw cycles Measured concentration: 26.80 ± 1.81 ng/mL
[4]; [19]
  Auto-sampler for 6 h Measured concentration: 717.67 ± 14.53 ng/mL
  Three freeze-thaw cycles Measured concentration: 716.31 ± 12.93 ng/mL
[4]; [20]
  Auto-sampler for 6 h Measured concentration: 17.71 ± 1.84 ng/mL
  Three freeze-thaw cycles Measured concentration: 17.55 ± 2.16 ng/mL
[4]; [21]
  Auto-sampler for 6 h Measured concentration: 107.37 ± 5.82 ng/mL
  Three freeze-thaw cycles Measured concentration: 105.63 ± 6.43 ng/mL
[4]; [22]
  Auto-sampler for 6 h Measured concentration: 38.84 ± 3.48 ng/mL
  Three freeze-thaw cycles Measured concentration: 38.30 ± 3.03 ng/mL
[4]; [23]
  Auto-sampler for 6 h Measured concentration: 0.48 ± 0.05 ng/mL
  Three freeze-thaw cycles Measured concentration: 0.46 ± 0.04 ng/mL
[4]; [24]
  Auto-sampler for 6 h Measured concentration: 4.71 ± 0.14 ng/mL
  Three freeze-thaw cycles Measured concentration: 4.66 ± 0.10 ng/mL
[4]; [25]
  Auto-sampler for 6 h Measured concentration: 684.55 ± 31.57 ng/mL
  Three freeze-thaw cycles Measured concentration: 677.57 ± 32.24 ng/mL
[4]; [26]
  Auto-sampler for 6 h Measured concentration: 11.24 ± 0.63 ng/mL
  Three freeze-thaw cycles Measured concentration: 11.40 ± 0.76 ng/mL
[4]; [27]
  Auto-sampler for 6 h Measured concentration: 80.95 ± 2.54 ng/mL
  Three freeze-thaw cycles Measured concentration: 79.35 ± 1.81 ng/mL
[4]; [28]
  Auto-sampler for 6 h Measured concentration: 43.94 ± 1.72 ng/mL
  Three freeze-thaw cycles Measured concentration: 44.41 ± 1.38 ng/mL
[4]; [29]
  Auto-sampler for 6 h Measured concentration: 0.57 ± 0.05 ng/mL
  Three freeze-thaw cycles Measured concentration: 0.58 ± 0.07 ng/mL
[4]; [30]
  Auto-sampler for 6 h Measured concentration: 6.13 ± 0.11 ng/mL
  Three freeze-thaw cycles Measured concentration: 6.22 ± 0.15 ng/mL

Reference: article PMC10616469, “Pharmacokinetics and tissue distribution of four major bioactive components of Cynanchum auriculatum extract: a UPLC–MS/MS study in normal and functional dyspepsia rats” (Frontiers in Pharmacology, 2023)
